Experimental data as given in paper PMC7061854, “Population Pharmacokinetics of Caspofungin and Dosing Optimization in Children With Allogeneic Hematopoietic Stem Cell Transplantation” (Frontiers in Pharmacology, 2020).
Values after ≈ are worked out from the molar mass of the structure shown. Like-named read-outs stand apart in the source and are kept apart here.

Experiments:
[1] = median, children 2–12 years old, two-compartment model; ref Yang et al., 2019; cited from earlier work
Source text: Others reported weight and disease state had significant effects on caspofungin PKs in pediatric patients ([Li et al., 2011]). Xin-Mei Yang studied the PK of caspofungin in children (2–12 years old).

[2] = tested on: invasive fungal infections (IFI); test: Clinical outcome of caspofungin prophylaxis for fungal infections during HSCT; assay type: in vivo, human
Method: (§1) Caspofungin has been approved for use in patients with IFI that requiring prevention treatment, especially for patients undergoing allo-HSCT. In total, 48 patients, received allo-HSCT, fulfilled the enrollment criteria and provided informed in the model building group between July 2017 and March 2019. They received caspofungin as a 1-h intravenous infusion on the basis of body surface area (BSA) with 50 mg/m^2 maintenance dose daily followed by 70 mg/m^2 loading dose on day 1.
In this study, 48 patients received caspofungin (loading dose of 70 mg/m^2 followed by 50 mg/m^2) as prophylaxis for fungal infections for a period of HSCT. The diagnosis of IFI mainly relied on a chest computed tomography (CT), clinical symptoms, blood culture, G test, and GM test. Patients were considered a probable IFI case with a chest CT scan positive for a halo or air crescent sign and large mass flocculent shadow. Routine blood culture, as long as the patients who receive bronchoscopy are all sent to receive bronchoalveolar lavage fluid culture meanwhile high throughput sequencing to find the pathogenic bacteria. […] The culture of bronchoalveolar lavage fluid was negative in three cases for consecutive two times and positive for C. parapsilosis in one case that was identified as C. parapsilosis infection (MIC = 0.5 mg/L). […]

C. parapsilosis [3] = conditions: ref Pfaller et al.; cited from earlier work
Method: Table 4 The area under the concentration-time curve (AUC)/minimal inhibitory concentration (MIC) target probability of target attainment (PTA) values(%) against Candida albicans, Candida glabrata, and Candida parapsilosis for caspofungin in pediatric patients. | column: AUC/MIC target PTA(%) / C. parapsilosis MIC90 = 0.5 mg/L / Fungistatic target || Two simulation procedures were performed to calculate the probability of PK/PD target attainment with different dosing regimens based on the final model. One of the procedure is fixed MIC value of Candida app. to simulated the clinical efficacy of the different drug regimens of caspofungin in infants, children (age 2–11 years), and adolescents (age 12–14 years). According to the literature report, the MIC90 value for C. albicans, C. glabrata, and C. parapsilosis are 0.03, 0.06, and 0.5 mg/L ([Pfaller et al.]). Another simulation procedure is not fixed MIC values. The loading doses of caspofung ...

C. parapsilosis [4] = test: MIC of the isolate cultured from bronchoalveolar lavage fluid; assay type: cell-based, Candida parapsilosis; conditions: isolate of one failed prophylaxis case
Method: In this study, 48 patients received caspofungin (loading dose of 70 mg/m^2 followed by 50 mg/m^2) as prophylaxis for fungal infections for a period of HSCT. The diagnosis of IFI mainly relied on a chest computed tomography (CT), clinical symptoms, blood culture, G test, and GM test. Patients were considered a probable IFI case with a chest CT scan positive for a halo or air crescent sign and large mass flocculent shadow. Routine blood culture, as long as the patients who receive bronchoscopy are all sent to receive bronchoalveolar lavage fluid culture meanwhile high throughput sequencing to find the pathogenic bacteria. […] The culture of bronchoalveolar lavage fluid was negative in three cases for consecutive two times and positive for C. parapsilosis in one case that was identified as C. parapsilosis infection (MIC = 0.5 mg/L). The median ± standard deviation of AUC24 in successful and failed cases group are 394.93 ± 91.14 mg·h/L and 352.08 ± 24.43 mg·h/L (t = 0.929, P = 0.358) at the loading dose, 300.37 ± 88.3 mg·h/L and 247.71 ± 33.67 mg·h/L (t = 1.175, P = 0.246) at the maintenance dose respectively. […] They were much lower than fungicidal target AUC24/MIC ratios ⩾ 1185 for C. parapsilosis. At the maintenance dose AUC24/MIC ratios were lower than the fungistatic target AUC24/MIC ratios ⩾ 559 for C. parapsilosis, which might lead to the failure of preventive treatment.

C. albicans [5] = conditions: ref Pfaller et al.; cited from earlier work
Method: Table 4 The area under the concentration-time curve (AUC)/minimal inhibitory concentration (MIC) target probability of target attainment (PTA) values(%) against Candida albicans, Candida glabrata, and Candida parapsilosis for caspofungin in pediatric patients. | column: AUC/MIC target PTA(%) / C. albicans MIC90 = 0.04 mg/L / Fungistatic target || Two simulation procedures were performed to calculate the probability of PK/PD target attainment with different dosing regimens based on the final model. One of the procedure is fixed MIC value of Candida app. to simulated the clinical efficacy of the different drug regimens of caspofungin in infants, children (age 2–11 years), and adolescents (age 12–14 years). According to the literature report, the MIC90 value for C. albicans, C. glabrata, and C. parapsilosis are 0.03, 0.06, and 0.5 mg/L ([Pfaller et al.]). Another simulation procedure is not fixed MIC values. The loading doses of caspofung ...

C. glabrata [6] = conditions: ref Andes et al., 2010; cited from earlier work
Source text: (§2) The likely success of treatment identified with the probability of target attainment (PTA) by comparing the pharmacodynamic exposure against an minimal inhibitory concentration (MIC) distribution. […] A PK/PD target was defined as the ratio AUC24/MIC for candidiasis. […] Fungistatic ...

C. albicans [7] = conditions: ref Andes et al., 2010; cited from earlier work
Source text: as §2

C. glabrata [8] = conditions: ref Pfaller et al.; cited from earlier work
Method: Table 4 The area under the concentration-time curve (AUC)/minimal inhibitory concentration (MIC) target probability of target attainment (PTA) values(%) against Candida albicans, Candida glabrata, and Candida parapsilosis for caspofungin in pediatric patients. | column: AUC/MIC target PTA(%) / C. glabrata MIC90 = 0.06 mg/L / Fungistatic target || Two simulation procedures were performed to calculate the probability of PK/PD target attainment with different dosing regimens based on the final model. One of the procedure is fixed MIC value of Candida app. to simulated the clinical efficacy of the different drug regimens of caspofungin in infants, children (age 2–11 years), and adolescents (age 12–14 years). According to the literature report, the MIC90 value for C. albicans, C. glabrata, and C. parapsilosis are 0.03, 0.06, and 0.5 mg/L ([Pfaller et al.]). Another simulation procedure is not fixed MIC values. The loading doses of caspofung ...

clinical = assay type: in vivo, human; conditions: for AUC(0-t) / clearance: human, in vivo, iv; for AUC(0-t): median ± standard deviation, read-out: AUC24
Method: A prospective, open-label pharmacokinetic study of caspofungin was performed at Wuhan Children's Hospital, Hubei Province. All designed procedures conformed to the legal requirements and the ethics committee of Wuhan Children's Hospital approved this study.
as §1
We performed an opportunistic sampling strategy when a steady-state caspofungin concentration had been achieved. Plasma was placed on ice and centrifuged (15,000 rpm for 5 min at +4°C) immediately and then stored at −80°C prior to analysis. Then we recorded the dosing and infusion time as well as sampling time prospectively.
Caspofungin concentrations were detected by a high-performance liquid chromatography method (Agilent Technologies Inc., 1260 infinity) with ultraviolet (UV) performed on detection by fluorescence. The excitation wavelength was 220 nm, the column temperature was 30 °C, and the pump flow rate was 0.8 ml/min. A solution of 42% acetonitrile was used as the mobile phase. We employed 0.5 ml of serum loaded on solid-phase extraction column (Agela Technologies, Cleanert ODS C18, 200 mg/3 ml) and then eluted with 60% acetonitrile. An Innoval C18 column (Agela Technologies, 10 μm, 4.6 × 250 mm) was used for separation. The calibration curve ranged from 0.6 to 20 mg/L. The inter- and intra-assay coefficients of variation of controls were all less than 5%. The lower limit of quantification (LLOQ) was 0.6 mg/L.
The PopPK study was performed by applying the non-linear mixed-effect modeling program Phoenix NLME (Version 8.1, Pharsight Corporation) and R program (Version 3.5.1, http://www.r-project.org/).
We tried to describe the pharmacokinetic process of caspofungin in vivo by using the one- or two-compartment models. The scale model and exponential model were adopted for intra-individual variation and inter-individual variation respectively. A forward and backward selection process was used for covariate analysis. The effects of demographic characteristics including age, body weight (WT), height, BSA, biological parameters including uric acid (UA), serum cystatin C (Cys-C), estimated glomerular filtration rate (eGFR), alanine aminotransferase (ALT), aspartate aminotransferase (AST), and gama-glutamyltranspeptidase (gama-GT) that were investigated as potential covariates on PK parameters. eGFR was calculated according to the modified Schwarta formula ([Schwartz et al., 2009]). Mosteller formula was used to calculate the body surface area (BSA) as follows ([Yang et al., 2019]):
BSA(m^2)=[height(cm)×weight(kg)/3600]^1/2
During the forward selection step, the covariate causing the objective function value (OFV) decreased more than 3.84 (P < 0.05, χ2 distribution, df = 1), the covariate was included into the model, thereafter we tested the remaining covariates.
In this study, goodness-of-fit plots, bootstrap, visual predictive check (VPC), and normalized prediction distribution errors (NPDEs) were adopted to model validation. Bootstrap resampling 1,000 times in the modeling data, and the model was established with the sampling data set. We compared the similarity between bootstrap model parameters and the parameters in final model. VPC simulated 1,000 virtual data with the final model and analyze whether the 95% confidence interval (CI) of the simulated data contains the original data. NPDEs also adopted simulation technology and simulated 1,000 times based on the final model to investigated the distribution of the standard error and perform the normal distribution test.

[9] = Bayesian estimates, mean ± SD, all children, SD
[10] = patients with mild liver dysfunction (40 U/L < AST ⩽ 120 U/L)
[11] = patients with normal liver function

## CC[C@H](C)C[C@H](C)CCCCCCCCC(=O)N[C@H]1C[C@@H](O)[C@@H](NCCN)NC(=O)[C@@H]2[C@@H](O)CCN2C(=O)[C@H]([C@H](O)CCN)NC(=O)[C@H]([C@H](O)[C@@H](O)c2ccc(O)cc2)NC(=O)[C@@H]2C[C@@H](O)CN2C(=O)[C@H]([C@@H](C)O)NC1=O [caspofungin, Caspofungin]
[1]
  CL: 0.21 L/h/m^2
  central volume distribution: 2.23 L/m^2
[2]; 48 caspofungin recipients, standard-dose
  drug-related adverse events: we did not find drug-related adverse events
[2]; 48 children with allo-HSCT, loading dose 70 mg/m^2 followed by 50 mg/m^2
  patients with prophylaxis (favorable) outcome: 92%
C. parapsilosis [3]
  MIC90: 0.5 µg/mL (≈ 0.457 µM)
C. parapsilosis [4]
  MIC: 0.5 µg/mL
C. albicans [5]
  MIC90: 0.03 µg/mL (≈ 0.0274 µM)
C. glabrata [6]
  Fungicidal target AUC24/MIC ratio: 450
  Fungistatic target AUC24/MIC ratio: 96.2
C. albicans [7]
  Fungicidal target AUC24/MIC ratio: 865
  Fungistatic target AUC24/MIC ratio: 748
C. glabrata [8]
  MIC90: 0.06 µg/mL (≈ 0.0549 µM)
clinical; 1,000-run bootstrap
  θ1 Bootstrap analysis Median Estimate: 0.91
  θ2 Bootstrap analysis Median Estimate: −0.25
clinical; [9]
  BSA-normalized CL: 0.19 ± 0.04 L/m^2/h
  BSA-normalized Vd: 1.72 ± 0.01 L/m^2
clinical; adolescents, age 12–14 years, two severe liver dysfunction patients excluded
  BSA-normalized CL: 0.178 ± 0.039 L/m^2/h
clinical; children, age 2–11 years, two severe liver dysfunction patients excluded
  BSA-normalized CL: 0.187 ± 0.031 L/m^2/h
clinical; final PopPK model
  θ1 (exponent for BSA as covariate) Final model Estimate: 0.89
  θ2 (exponent for lnAST as covariate for CL) Final model Estimate: −0.23
clinical; 50 mg/m2, failed cases group, at the maintenance dose (50 mg/m^2), SD
  AUC(0-t): 248 ± 33.7 µg·h/mL
clinical; 50 mg/m2, successful cases group, at the maintenance dose (50 mg/m^2), SD
  AUC(0-t): 300 ± 88.3 µg·h/mL
clinical; 70 mg/m2, failed cases group, at the loading dose (70 mg/m^2), SD
  AUC(0-t): 352 ± 24.4 µg·h/mL
clinical; 70 mg/m2, successful cases group, at the loading dose (70 mg/m^2), SD
  AUC(0-t): 395 ± 91.1 µg·h/mL
clinical; [10]
  clearance: 1.95 mL/min
  estimated BSA-normalized CL: 0.179 ± 0.03 L/m^2/h
clinical; [11]
  clearance: 2.67 mL/min
  estimated BSA-normalized CL: 0.188 ± 0.03 L/m^2/h
clinical; infants, two severe liver dysfunction patients excluded
  BSA-normalized CL: 0.190 ± 0.015 L/m^2/h
clinical; one-compartment PopPK model, typical value, 48 children with allo-HSCT, Vd = 1.36 × (BSA/0.79)
  θVd (L) Final model Estimate: 1.36 L
clinical; one-compartment PopPK model, typical value, CL = 0.14 × (BSA/0.79)^0.89 × (lnAST/3.38)^−0.23
  θCL (L·h^−1) Final model Estimate: 0.14 L/h
